Laboratory results as given in US20060046972A1, “Cytotoxic nucleoside analog compound 003 for treating cancer” (Parker Hughes Institute, priority 2004, published 2006).

Legend:
[1] = Stability in simulated gastric fluid; format: in vitro ADME
Description: Plasma samples, simulated gastric fluid and intestinal fluids (United State Pharmacopeia XXII methods) were separately spiked with COMPOUND 003 to yield final concentrations of 500 μM. Spiked samples were incubated at 37° C. At a predetermined time (5, 10, 15, 30 60 and 120 minutes), an aliquot (200 μl) of the spiked plasma sample was extracted as described above.

[2] = test system: DU145 prostate cancer cells; assay: Confocal laser scanning microscopy of mitotic spindle, DU145; format: cell-based, human; conditions: 100 μM
Description: (§1) Immunofluorenscence was used to examine the spindle features of human cancer cell lines treated with Compound 003 or 0.5% DMSO. Initially, cells at log phase were seeded onto sterile 22 mm coverslips in six -well culture plates. 24 hours later, the cells were treated with compound 003 for 2 hours at 37° C., 5% C02, fixed in methanol (−20° C. 15 min) followed by a 15 minute incubation with PBS +0.1.% Tx-100. The coverslips were incubated with antibodies raised against α-tubulin, γ-tubulin (Sigma Chemical Co., St Louis, Mo.) (40 min 37° C.), washed in PBS-Tx-100, and incubated with an appropriate secondary antibody conjugated to FITC (Jackson ImmunoResearch, Westgrove, Pa.). Cellular DNA was labeled with 5 μM TOTO3 (Molecular Probes, Eugene, Oreg.) for 20 minutes. Coverslips were immediately inverted onto slides in Vectashield (Vector Labs, Burlingame, Calif.) to prevent photobleaching, sealed with nail varnish and stored at −20° C. The slides were examined using a Bio-Rad MRC-1024 Laser Scanning Confocal Microscope equipped with a Kr/Ar laser (BioRad, Hercules, Calif.) mounted on a Nikon Eclipse E800 upright microscope with high numerical aperture objectives (Nikon, Melville, N.Y.). Digital data were processed using Lasersharp (BioRad) and Adobe Photoshop software (Adobe Systems, Mountain View, Calif.). […]

U373 glioblastoma cells = assay: Confocal laser scanning microscopy of mitotic spindle, U373; format: cell-based, human; conditions: 100 μM
Description: as §1

[3] = test system: Microsomal or cytosolic fractions of BT20 cells; assay: Enzyme kinetics of Compound 003 metabolism in subcellular fractions, BT20; format: in vitro ADME, human
Description: 1−3×10^8 Nalm6 and BT20 cells were washed with PBS, resuspended in homogenizing buffer containing 10 mM Tris-HCl (pH 7.4) and 250 mM sucrose. Cells were sonicated and spun at 10,000×g, and the resulting supernatant was centrifuged again at 100,000×g to isolate microsomal and cytosolic fractions. The microsomal pellet was resuspended in a buffer containing 10 mM Tris-HCl (pH 7.4), 250 mM sucrose, 1 mM EDTA, and 20% glycerol. Microsomes or cytosols of Nalm6 (80 μg. and 86 μg, respectively) and BT20 cells (59 μg and 160 μg, respectively) were preincubated with or without 1 mM paraoxon in Tris-HCl buffer (pH 7.4) in a total volume of 250 μl for 10 minutes; 1. mM COMPOUND 003 was then added to the incubation mixture, and the reactions were allowed to proceed for another 30 minutes and terminated by addition of 125 μl of acetone. Protein precipitation was then removed by centrifugation; 100 μl of the supernatant was injected directly into the HPLC.
2.2.9 Enzyme Kinetics of Compound 003 Metabolism Microsomal or cytosolic fractions of Nalm6 and BT20 cells were incubated with COMPOUND 003 at various concentrations from 10 μM to 1.2 mM in similar reaction conditions as described above, except without the inhibitor. The reactions were allowed to proceed for 40 minutes. Km and Vmax in the Michaelis-Menten model were estimated by WinNonlin program (Scientific Consulting, Inc.)

BT20 cells = assay: Cellular uptake of Compound 003; format: in vitro ADME, human; conditions: 50 μM, 1 hr
From the text: Intracellular metabolism of Compound 003 was studied in CEM T-lineage lymphoma cell line, BT20 breast cancer cell line, T98 glioblastoma cell line, and Nalm-6 B-lineage leukemia cell line. CEM and Nalm6 cells were maintained in RPMI supplemented with 10% fetal bovine serum, and 1% penicillin/streptomycin. BT20 and T98 cells w.ere cultured in a medium composed of MEM, 10% fetal bovine serum, 0.1-mM of nonessential amino acids and Earles salts, and 1% penicillin/streptomycin. CEM and Nalm6 cells at a density of 10^6 cells per ml were utilized in the drug metabolism study. BT20 and T98 cells were seeded in 6-cm petri-dishes at 4 million cells and 2 million cells per plate, respectively, the day before the experiment. Either one plate of adherent cells or 10 million non-adherent cells was utilized at each time point. Cells were incubated with various concentrations of the compounds up to 24 hrs at 37° C. After incubation, cells were washed 2 times with ice-cold PBS, and extracted by addition of 0.5-1 ml of 60% methanol. […] With efflux experiments, cells 1×10^6/mL (the same density as in the uptake study) were incubated with 100 μM Compound 003 for 1 hr, washed 2 times with ice-cold PBS, and resuspended with culture medium without drug, and the metabolite efflux from cells to the medium was measured after 6 hr of incubation.

## COC(=O)C(C)NP(=O)(OCC1OC(n2cc(C)c(=O)[nH]c2=O)CC1N=[N+]=[N-])Oc1ccc(OC)cc1 (stereo not drawn) [Compound 003, 3′-azidothymidine 5′-[p-methoxyphenylmethoxyalaninyl phosphate]]
[1]; gastric fluid
  decomposition product: quickly decomposed to yield a intermediate product
[1]; simulated gastric fluid, 500 μM, 37° C.
  stability: unstable
[2]
  mitotic spindle formation: induced aberrant multipolar spindle formation
U373 glioblastoma cells
  mitotic spindle formation: induced aberrant multipolar spindle formation
[3]; cytosolic fraction
  Km: 1750 µM
  Vmax: 5.9 nmol/mg/min
[3]; microsomal fraction
  Km: 460 µM
  Vmax: 0.7 nmol/mg/min
BT20 cells
  uptake of Compound 003, BT20 relative to Nalm6 and CEM cells: about 2 fold
